Test results from patent US8063220B2, “Sulfonyl-quinoline derivatives” (Richter Gedeon Nyrt., priority 2007, dated 2011).

Key:
[1] = target: T1, rat mGluR1 (Rattus norvegicus, UniProt P23385); test: MGluR1 receptor binding test ([3H]R214127 displacement, rat cerebellar membrane preparation); conditions: rat mGluR1, [3H]R214127 3 nM; read-out: mGlu1 Ki
T1 construct: rat cerebellar membrane preparation was used; from tissue; host or cells: rat cerebellum (membrane preparation)
Method: MGluR1 receptor binding tests were performed according to modified method of Lavreysen et al. (Mol. Pharm., 2003, 63, 1082). Based on the high homology between the human and rat mGluR1 receptors, rat cerebellar membrane preparation was used to determine the binding characteristics of reference compounds and novel compounds to the rat mGluR1. [3H]R214127 (3 nM) was used as radioligand and the nonspecific binding was determined in the presence of 1 μM of R214127.
IC-50 values were determined from displacement curves by nonlinear regression analysis and were converted to Ki values using the equation method of Cheng and Prusoff (Biochem. Pharmacol., 1973, 22, 3099).

[2] = target: T2, rat mGluR5 (Rattus norvegicus, UniProt P31424); test: MGluR5 receptor binding test ([3H]-M-MPEP displacement, rat cerebro-cortical membrane preparation); conditions: rat mGluR5, [3H]-M-MPEP 2 nM; read-out: mGlu5 Ki
T2 construct: Rat cerebro-cortical membrane preparation was used; from tissue; host or cells: rat cerebral cortex (membrane preparation)
Method: Rat cerebro-cortical membrane preparation was used to determine the binding characteristics of reference compounds and novel compounds to the rat mGluR5. The A18 cell line expressing hmGluR5a (purchased from Euroscreen) was used to determine binding characteristics of the chemical compounds to the human mGluR5a receptor. [3H]-M-MPEP (2 nM) was used as radioligand. The nonspecific binding was determined in the presence of 10 μM M-MPEP.

T1 sequence (P23385 19-1199): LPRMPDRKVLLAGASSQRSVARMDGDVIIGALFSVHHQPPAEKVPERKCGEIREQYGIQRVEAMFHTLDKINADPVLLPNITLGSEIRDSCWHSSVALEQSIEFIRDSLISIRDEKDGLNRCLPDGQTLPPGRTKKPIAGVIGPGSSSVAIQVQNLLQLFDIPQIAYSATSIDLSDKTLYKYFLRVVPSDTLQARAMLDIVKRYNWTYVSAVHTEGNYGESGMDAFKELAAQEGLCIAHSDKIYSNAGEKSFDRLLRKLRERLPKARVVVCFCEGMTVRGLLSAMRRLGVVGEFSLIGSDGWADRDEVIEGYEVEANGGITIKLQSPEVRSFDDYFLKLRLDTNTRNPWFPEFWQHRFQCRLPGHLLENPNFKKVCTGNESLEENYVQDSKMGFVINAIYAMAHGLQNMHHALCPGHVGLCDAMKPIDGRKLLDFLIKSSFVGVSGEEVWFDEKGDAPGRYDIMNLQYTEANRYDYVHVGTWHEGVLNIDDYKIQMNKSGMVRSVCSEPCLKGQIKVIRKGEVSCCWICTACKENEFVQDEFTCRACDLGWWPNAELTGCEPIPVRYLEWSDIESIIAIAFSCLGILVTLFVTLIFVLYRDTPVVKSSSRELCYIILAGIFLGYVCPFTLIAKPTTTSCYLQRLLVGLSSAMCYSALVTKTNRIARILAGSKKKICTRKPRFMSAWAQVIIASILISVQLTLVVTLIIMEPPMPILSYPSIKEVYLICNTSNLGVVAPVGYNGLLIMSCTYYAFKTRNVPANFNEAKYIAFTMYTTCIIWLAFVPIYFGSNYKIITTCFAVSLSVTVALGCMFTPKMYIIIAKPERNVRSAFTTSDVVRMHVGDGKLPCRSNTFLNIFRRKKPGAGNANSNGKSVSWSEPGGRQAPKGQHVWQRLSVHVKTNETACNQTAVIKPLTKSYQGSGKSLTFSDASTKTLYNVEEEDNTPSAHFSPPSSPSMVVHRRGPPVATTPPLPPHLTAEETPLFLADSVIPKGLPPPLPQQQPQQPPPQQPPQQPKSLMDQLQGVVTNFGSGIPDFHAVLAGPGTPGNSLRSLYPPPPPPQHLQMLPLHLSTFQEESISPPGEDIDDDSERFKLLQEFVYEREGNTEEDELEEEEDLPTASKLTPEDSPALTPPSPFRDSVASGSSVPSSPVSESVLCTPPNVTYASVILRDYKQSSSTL
T2 sequence (P31424 21-1203): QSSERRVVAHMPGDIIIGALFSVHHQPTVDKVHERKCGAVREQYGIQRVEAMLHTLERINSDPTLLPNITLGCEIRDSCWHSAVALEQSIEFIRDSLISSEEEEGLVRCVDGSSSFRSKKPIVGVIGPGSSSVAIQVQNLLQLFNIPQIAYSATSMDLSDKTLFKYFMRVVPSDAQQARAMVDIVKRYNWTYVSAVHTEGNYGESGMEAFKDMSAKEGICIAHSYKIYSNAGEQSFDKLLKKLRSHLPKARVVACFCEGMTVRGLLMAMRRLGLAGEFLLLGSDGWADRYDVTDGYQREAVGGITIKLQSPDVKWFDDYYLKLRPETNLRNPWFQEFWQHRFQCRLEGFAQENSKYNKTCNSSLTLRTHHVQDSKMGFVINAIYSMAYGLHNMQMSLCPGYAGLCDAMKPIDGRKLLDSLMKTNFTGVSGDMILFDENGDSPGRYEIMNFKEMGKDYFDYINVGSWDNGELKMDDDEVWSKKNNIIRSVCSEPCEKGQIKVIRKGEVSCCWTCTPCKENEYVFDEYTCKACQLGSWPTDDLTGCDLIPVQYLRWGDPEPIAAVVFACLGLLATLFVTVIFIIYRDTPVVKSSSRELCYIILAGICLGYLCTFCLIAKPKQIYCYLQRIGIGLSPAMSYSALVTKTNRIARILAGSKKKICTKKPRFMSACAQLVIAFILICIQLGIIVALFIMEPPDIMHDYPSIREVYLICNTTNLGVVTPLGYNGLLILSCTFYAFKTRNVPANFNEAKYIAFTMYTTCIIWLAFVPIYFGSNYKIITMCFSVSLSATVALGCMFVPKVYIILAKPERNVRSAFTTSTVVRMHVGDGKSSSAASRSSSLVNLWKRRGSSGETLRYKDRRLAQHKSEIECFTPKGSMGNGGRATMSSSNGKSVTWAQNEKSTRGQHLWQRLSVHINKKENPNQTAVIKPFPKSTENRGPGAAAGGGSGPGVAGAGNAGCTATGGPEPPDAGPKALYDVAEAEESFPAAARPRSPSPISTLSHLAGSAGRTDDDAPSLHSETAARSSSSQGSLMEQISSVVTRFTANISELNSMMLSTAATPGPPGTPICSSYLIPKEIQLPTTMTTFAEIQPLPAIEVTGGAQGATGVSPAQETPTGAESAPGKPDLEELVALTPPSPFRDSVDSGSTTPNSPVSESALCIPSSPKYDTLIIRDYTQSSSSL

Compound	Ki [1] [µM]	Ki [2] [µM]
O=S(=O)(c1ccc(F)c(Cl)c1)c1cnc2cc(Cl)ccc2c1-c1ccccc1F [Compound 233]	< 0.2	< 0.2
O=S(=O)(c1ccc(F)cc1)c1cnc2ccc(F)cc2c1-c1cccc(F)c1 [Compound 26]	> 0.5	0.2 to 0.5
Cc1ccc(S(=O)(=O)c2cnc3c(F)cccc3c2-c2ccc(Cl)cc2)cc1F [Compound 110]	> 0.5	< 0.2
O=S(=O)(c1ccc(F)c(Cl)c1)c1cnc2cc(F)ccc2c1-c1cccc(F)c1 [Compound 103]	< 0.2	< 0.2
COc1cccc(S(=O)(=O)c2cnc3ccc(F)cc3c2-c2cccc(Cl)c2)c1 [Compound 72]	> 0.5	< 0.2
O=S(=O)(c1cc(Cl)cc(Cl)c1)c1cnc2c(F)cccc2c1-c1ccc(F)c(F)c1 [Compound 220]	> 0.5	< 0.2
N#Cc1ccc2c(-c3ccccc3F)c(S(=O)(=O)c3ccc(F)c(Cl)c3)cnc2c1 [Compound 195]	> 0.5	< 0.2
Cc1ccc(S(=O)(=O)c2cnc3ccc(F)cc3c2-c2ccc(F)cc2)cc1C [Compound 148]	> 0.5	< 0.2
O=S(=O)(c1ccc(F)c(F)c1)c1cnc2c(F)cccc2c1-c1ccc(F)c(F)c1 [Compound 238]	> 0.5	< 0.2
O=S(=O)(c1ccc(Cl)cc1)c1cnc2c(Cl)cccc2c1-c1ccc(Cl)cc1 [Compound 5]	> 0.5	0.2 to 0.5
O=S(=O)(c1cc(Cl)cc(Cl)c1)c1cnc2ccc(F)cc2c1-c1cccc(Cl)c1 [Compound 160]	> 0.5	< 0.2
Cc1ccc(S(=O)(=O)c2cnc3cc(F)ccc3c2-c2cccc(Cl)c2)cc1F [Compound 84]	> 0.5	< 0.2
COc1ccc(-c2c(S(=O)(=O)c3cccc(OC)c3)cnc3ccc(F)cc23)cc1 [Compound 145]	> 0.5	< 0.2
O=S(=O)(c1ccc(F)c(Cl)c1)c1cnc2ccc(F)cc2c1-c1ccc(F)cc1 [Compound 155]	0.2 to 0.5	< 0.2
N#Cc1cc(F)cc(S(=O)(=O)c2cnc3ccccc3c2-c2cccc(F)c2)c1 [Compound 207]	> 0.5	< 0.2
Cc1ccc(S(=O)(=O)c2cnc3cc(F)ccc3c2-c2cccc(F)c2)cc1Cl [Compound 94]	> 0.5	< 0.2
O=S(=O)(c1cc(Cl)cc(Cl)c1)c1cnc2cc(Cl)ccc2c1-c1cccc(Cl)c1 [Compound 263]	0.2 to 0.5	< 0.2
COc1ccc(S(=O)(=O)c2cnc3ccc(F)cc3c2-c2cccc(Cl)c2)cc1OC [Compound 70]	> 0.5	> 0.5
N#Cc1cccc(S(=O)(=O)c2cnc3c(F)cccc3c2-c2cccc(Cl)c2)c1 [Compound 246]	> 0.5	< 0.2
N#Cc1cc(S(=O)(=O)c2cnc3cc(Cl)ccc3c2-c2cccc(Cl)c2)ccc1F [Compound 242]	< 0.2	< 0.2
Cc1ccc(S(=O)(=O)c2cnc3c(F)cccc3c2-c2ccc(F)cc2)cc1F [Compound 114]	> 0.5	< 0.2

Compound	Ki [1] [µM]	Ki [2] [µM]
O=S(=O)(c1ccc(Cl)cc1)c1cnc2ccc(F)cc2c1-c1cccc(Cl)c1 [Compound 8]	> 0.5	> 0.5
N#Cc1cccc(S(=O)(=O)c2cnc3cc(Cl)ccc3c2-c2ccc(F)cc2)c1 [Compound 241]	0.2 to 0.5	< 0.2
N#Cc1cccc(S(=O)(=O)c2cnc3c(F)cccc3c2-c2cccc(F)c2)c1 [Compound 215]	> 0.5	< 0.2
N#Cc1cccc(S(=O)(=O)c2cnc3ccc(F)cc3c2-c2ccc(Cl)cc2)c1 [Compound 136]	0.2 to 0.5	< 0.2
N#Cc1cccc(S(=O)(=O)c2cnc3cc(F)ccc3c2-c2cccc(Cl)c2)c1 [Compound 91]	< 0.2	< 0.2
N#Cc1cccc(S(=O)(=O)c2cnc3cc(Cl)ccc3c2-c2ccccc2F)c1 [Compound 227]	< 0.2	< 0.2
COc1ccc(-c2c(S(=O)(=O)c3cc(Cl)cc(Cl)c3)cnc3c(F)cccc23)cc1 [Compound 107]	> 0.5	< 0.2
O=S(=O)(c1cc(Cl)cc(Cl)c1)c1cnc2cc(F)ccc2c1-c1ccc(F)cc1 [Compound 83]	0.2 to 0.5	
O=S(=O)(c1ccc(F)c(F)c1)c1cnc2c(F)c(Cl)ccc2c1-c1ccc(Cl)cc1 [Compound 204]	> 0.5	< 0.2
COc1ccc(S(=O)(=O)c2cnc3cc(F)ccc3c2-c2cccc(Cl)c2)cc1OC [Compound 162]	> 0.5	> 0.5
O=S(=O)(c1ccc(F)c(F)c1)c1cnc2c(F)cccc2c1-c1cccc(F)c1 [Compound 121]	< 0.2	< 0.2
O=S(=O)(c1cc(F)cc(F)c1)c1cnc2cc(F)ccc2c1-c1cccc(Cl)c1 [Compound 87]	> 0.5	0.2 to 0.5
N#Cc1cc(F)cc(S(=O)(=O)c2cnc3cc(F)ccc3c2-c2ccc(F)c(F)c2)c1 [Compound 231]	> 0.5	< 0.2
N#Cc1cc(S(=O)(=O)c2cnc3ccccc3c2-c2ccc(Cl)cc2)ccc1F [Compound 273]	> 0.5	< 0.2
O=S(=O)(c1ccc(F)cc1)c1cnc2cc(F)ccc2c1-c1cccc(F)c1 [Compound 9, 7-fluoro-3-(4-fluoro-benzenesulfonyl)-4-(3-fluoro-phenyl)-quinoline]	0.2 to 0.5	< 0.2
O=S(=O)(c1cccc(F)c1)c1cnc2cc(F)ccc2c1-c1cccc(F)c1 [Compound 15]	0.2 to 0.5	< 0.2
O=S(=O)(c1cc(F)cc(F)c1)c1cnc2ccc(F)cc2c1-c1ccc(Cl)cc1 [Compound 132]	> 0.5	0.2 to 0.5
COc1ccc(-c2c(S(=O)(=O)c3cc(Cl)cc(Cl)c3)cnc3ccc(F)cc23)cc1 [Compound 125]	> 0.5	< 0.2
COc1ccc(S(=O)(=O)c2cnc3cc(F)ccc3c2-c2ccc(F)cc2)cc1 [Compound 14]	> 0.5	0.2 to 0.5
O=S(=O)(c1ccc(F)cc1)c1cnc2cc(F)ccc2c1-c1ccc(Cl)cc1 [Compound 76]	> 0.5	< 0.2
O=S(=O)(c1cccc(F)c1)c1cnc2cc(Cl)ccc2c1-c1ccc(Cl)cc1 [Compound 173]	> 0.5	< 0.2

Compound	Ki [1] [µM]	Ki [2] [µM]
O=S(=O)(c1ccc(F)c(F)c1)c1cnc2ccccc2c1-c1cccc(F)c1 [Compound 240]	> 0.5	< 0.2
N#Cc1cccc(S(=O)(=O)c2cnc3cc(C#N)ccc3c2-c2ccc(F)cc2)c1 [Compound 193]	> 0.5	0.2 to 0.5
O=S(=O)(c1cc(Cl)cc(Cl)c1)c1cnc2c(F)c(Cl)ccc2c1-c1cccc(Cl)c1 [Compound 252]	0.2 to 0.5	< 0.2
COc1ccc(-c2c(S(=O)(=O)c3cc(F)cc(F)c3)cnc3c(F)cccc23)cc1 [Compound 117]	> 0.5	< 0.2
O=S(=O)(c1ccc(F)c(Cl)c1)c1cnc2c(F)c(Cl)ccc2c1-c1ccc(F)cc1 [Compound 205]	> 0.5	< 0.2
O=S(=O)(c1cc(F)cc(F)c1)c1cnc2ccc(F)cc2c1-c1cccc(Cl)c1 [Compound 64]	> 0.5	> 0.5
COc1ccc(-c2c(S(=O)(=O)c3cc(F)cc(F)c3)cnc3ccc(F)cc23)cc1 [Compound 133]	> 0.5	0.2 to 0.5
COc1ccc(S(=O)(=O)c2cnc3ccc(F)cc3c2-c2cccc(F)c2)cc1 [Compound 30]	> 0.5	0.2 to 0.5
O=S(=O)(c1cc(Cl)cc(Cl)c1)c1cnc2c(F)cccc2c1-c1ccccc1F [Compound 223]	> 0.5	< 0.2
O=S(=O)(c1ccc(F)c(F)c1)c1cnc2c(F)cccc2c1-c1ccc(Cl)cc1 [Compound 120]	0.2 to 0.5	< 0.2
COc1ccc(-c2c(S(=O)(=O)c3ccc(F)cc3)cnc3ccc(F)cc23)cc1 [Compound 27]	> 0.5	> 0.5
COc1ccc(-c2c(S(=O)(=O)c3cc(Cl)cc(Cl)c3)cnc3cc(F)ccc23)cc1 [Compound 81]	> 0.5	< 0.2
N#Cc1cccc(S(=O)(=O)c2cnc3cc(Cl)ccc3c2-c2cccc(F)c2)c1 [Compound 234]	< 0.2	< 0.2
O=S(=O)(c1cc(F)cc(F)c1)c1cnc2cc(Cl)c(F)cc2c1-c1ccc(Cl)cc1 [Compound 201]	> 0.5	> 0.5
COc1ccc(-c2c(S(=O)(=O)c3cccc(F)c3)cnc3c(F)cccc23)cc1 [Compound 61]	> 0.5	< 0.2
N#Cc1cc(C#N)cc(S(=O)(=O)c2cnc3cc(F)ccc3c2-c2ccc(F)cc2)c1 [Compound 249]	> 0.5	< 0.2
O=S(=O)(c1ccc(F)cc1)c1cnc2cc(Cl)ccc2c1-c1ccc(F)cc1 [Compound 179]	> 0.5	< 0.2
O=S(=O)(c1ccc(F)c(F)c1)c1cnc2cc(Cl)ccc2c1-c1ccc(Cl)cc1 [Compound 175]	> 0.5	< 0.2
COc1cccc(-c2c(S(=O)(=O)c3ccc(C)c(Cl)c3)cnc3ccc(F)cc23)c1 [Compound 141]	> 0.5	< 0.2
